From patent US20240408169A1 (priority 2023, published 2024)
*1 amine or outer side, *2 acyl side, *3 side chain or, on linkers, in order; H or OH if unused. Where a SMILES comes first, the peptide text is derived from it. Bridges are numbered along the chain shown (N, C = ends). [ ]: non-standard residue; d: D form. The star is where a group is joined. X101 = CN([C@@H](Cc1cc(Cl)ccc1-c1cnn(C2CS(=O)(=O)C2)c1)C(=O)[*:2])[*:1]; X45 = CN1CCC(F)(c2ccc(-c3ccc(Cl)cc3C[C@@H](C(=O)[*:2])N(C)[*:1])cc2)CC1; X13 = CN([C@@H](Cc1cc(Cl)ccc1-c1cnn(CCS(C)(=O)=O)c1)C(=O)[*:2])[*:1]; X116 = CN([C@@H](Cc1cc(Cl)ccc1-c1cnc2c(c1)ncn2C)C(=O)[*:2])[*:1]; X68 = CN([C@@H](Cc1cc(Cl)ccc1-c1cnn(C2CC2)c1)C(=O)[*:2])[*:1]; X60 = CN([C@@H](Cc1cc(Cl)ccc1-c1cnn2ccncc12)C(=O)[*:2])[*:1]; NMehhhLys(Me) = CN([C@@H](CCCCCCCN(C)[*:3])C(=O)[*:2])[*:1]; cBuCO(3,3-F2-1-CF3) = O=C(C1(C(F)(F)F)CC(F)(F)C1)*; Pro(trans-4-F) = O=C(O)[C@@H]1C[C@@H](F)CN1; Gly(cPr) = N[C@H](C(=O)O)C1CC1

Columns and labels:
CyclinB1/CDK1 = target: T1, CyclinB1/CDK1 (Homo sapiens, UniProt P14635); assay: Fluorescence Polarization (FP) competitive binding assay, Cyclin B1/Cdk1; details: 10 nM Cyclin B1/Cdk1, 2 nM FAM probe; average of 2-3 independent experiments; read-out: Cyclin B FP IC50;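 also: fluorescence polarization read after equilibration at room temperature, with IC50 taken from serially diluted dose-response curves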
T1 construct: purchased Eurofins, discovery 14-450

CyclinA2/CDK2 = target: T2, CyclinA2/CDK2 (Homo sapiens, UniProt P20248); assay: Fluorescence Polarization (FP) competitive binding assay, Cyclin A2/Cdk2; details: 8 nM Cyclin A2/Cdk2, 2 nM FAM probe; average of 2-3 independent experiments; read-out: Cyclin A FP IC50;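 also: plates equilibrated two hours at room temperature before polarization reading, IC50 fitted from eight-concentration compound titration curves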
T2 construct: purchased CRELUX Protein Services

WI-38 cells = assay: MTT proliferation assay, WI-38; format: cell-based; details: 3 days compound exposure, 1:3 serial dilution starting at 10 μM;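 also: Eight- or ten-point dilution series, with exposure length chosen to span about three to four cell doublings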
OVCAR3 cells = assay: MTT proliferation assay, OVCAR3; format: cell-based; details: 5 days compound exposure, 1:3 serial dilution starting at 10 μM;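 also: compound given as an 8- or 10-point series, one day after plating, with exposure covering roughly 3-4 cell doublings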
NCI-H1048 cells = assay: MTT proliferation assay, NCI-H1048; format: cell-based; details: 5 days compound exposure, 1:3 serial dilution starting at 10 μM;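 also: Dose-response in 96-well plates over 8 or 10 concentration points, with exposure spanning 3-4 cell doublings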
CyclinE1/CDK2 = target: T3, CyclinE1/CDK2 (Homo sapiens, UniProt P24864); assay: Fluorescence Polarization (FP) competitive binding assay, Cyclin E1/Cdk2; details: 10 nM Cyclin E1/Cdk2, 2 nM FAM probe; average of 2-3 independent experiments; read-out: Cyclin E FP IC50;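 also: readings taken after two-hour equilibration at room temperature in HEPES buffer with NaCl, DTT, NP-40 and BSA, IC50 fitted from eight-concentration serial dilution series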
T3 construct: purchased Eurofins, discovery 14-475

Row | SMILES | IC50 (CyclinB1/CDK1) | IC50 (CyclinA2/CDK2) | GI50 (WI-38 cells) | GI50 (OVCAR3 cells) | GI50 (NCI-H1048 cells) | IC50 (CyclinE1/CDK2)
1 | CC(C)C[C@@H]1NC(=O)[C@@H](N(C)C(=O)[C@@H](NC(=O)[C@@H]2C[C@@H](F)CN2C(=O)C2(C(F)(F)F)CC(F)(F)C2)C2CC2)CCCCCCCN(C)C(=O)[C@H](Cc2cc(Cl)ccc2-c2cnn(CCS(C)(=O)=O)c2)N(C)C1=O [Example 257] ({cBuCO(3,3-F2-1-CF3)}-[Pro(trans-4-F)][Gly(cPr)][NMehhhLys(Me)]L[X13]; lactam 3-C) | 20 nM | 20 nM | 13300 nM | 10 nM | 10 nM | 120 nM
2 | CC(C)C[C@@H]1NC(=O)[C@@H](N(C)C(=O)[C@@H](NC(=O)[C@@H]2C[C@@H](F)CN2C(=O)C2(C(F)(F)F)CC(F)(F)C2)C2CC2)CCCCCCCN(C)C(=O)[C@H](Cc2cc(Cl)ccc2-c2cnc3c(c2)ncn3C)N(C)C1=O [Example 177] ({cBuCO(3,3-F2-1-CF3)}-[Pro(trans-4-F)][Gly(cPr)][NMehhhLys(Me)]L[X116]; lactam 3-C) | 20 nM | 20 nM | 8960 nM | 10 nM | 10 nM | 460 nM
3 | CC(C)C[C@@H]1NC(=O)[C@@H](N(C)C(=O)[C@@H](NC(=O)[C@@H]2C[C@@H](F)CN2C(=O)C2(C(F)(F)F)CC(F)(F)C2)C2CC2)CCCCCCCN(C)C(=O)[C@H](Cc2cc(Cl)ccc2-c2cnn3ccncc23)N(C)C1=O [Example 305] ({cBuCO(3,3-F2-1-CF3)}-[Pro(trans-4-F)][Gly(cPr)][NMehhhLys(Me)]L[X60]; lactam 3-C) | 20 nM | 50 nM | 19200 nM | 20 nM | 10 nM | 1750 nM
4 | CC(C)C[C@@H]1NC(=O)[C@@H](N(C)C(=O)[C@@H](NC(=O)[C@@H]2C[C@@H](F)CN2C(=O)C2(C(F)(F)F)CCC2)C2CC2)CC=CCCCCNC(=O)[C@H](Cc2cc(Cl)ccc2-c2cnn(CCO)c2)N(C)C1=O [Example 33] | 20 nM | 20 nM | 15600 nM | 170 nM | 90 nM | 270 nM
5 | CC(C)C[C@@H]1NC(=O)[C@@H](N(C)C(=O)[C@@H](NC(=O)[C@@H]2C[C@@H](F)CN2C(=O)C2(C(F)(F)F)CC(F)(F)C2)C2CC2)CCCCCCCN(C)C(=O)[C@H](Cc2cc(Cl)ccc2-c2cnn(C3CS(=O)(=O)C3)c2)N(C)C1=O [Example 255] ({cBuCO(3,3-F2-1-CF3)}-[Pro(trans-4-F)][Gly(cPr)][NMehhhLys(Me)]L[X101]; lactam 3-C) | 20 nM | 20 nM | 15800 nM | 30 nM | 40 nM | 210 nM
6 | CC(C)C[C@@H]1NC(=O)[C@@H](N(C)C(=O)[C@@H](NC(=O)[C@@H]2C[C@@H](F)CN2C(=O)C2(C(F)(F)F)CC(F)(F)C2)C2CC2)CCCCCCCN(C)C(=O)[C@H](Cc2cc(Cl)ccc2-c2cnn(C3CC3)c2)N(C)C1=O [Example 110] ({cBuCO(3,3-F2-1-CF3)}-[Pro(trans-4-F)][Gly(cPr)][NMehhhLys(Me)]L[X68]; lactam 3-C) | 20 nM | 20 nM | 4800 nM | 10 nM | 10 nM | 330 nM
7 | CC(C)C[C@@H]1NC(=O)[C@@H](N(C)C(=O)[C@@H](NC(=O)[C@@H]2C[C@@H](F)CN2C(=O)C2(C(F)(F)F)CC(F)(F)C2)C2CC2)CCCCCCCN(C)C(=O)[C@H](Cc2cc(Cl)ccc2-c2ccc(C3(F)CCN(C)CC3)cc2)N(C)C1=O [Example 370] ({cBuCO(3,3-F2-1-CF3)}-[Pro(trans-4-F)][Gly(cPr)][NMehhhLys(Me)]L[X45]; lactam 3-C) | 20 nM | 20 nM | 1210 nM | 20 nM | 20 nM | 780 nM
